Reference: patent US9539196B2, “Compositions comprising a SIRT6 activator and a DNA repair enzyme” (ELC Management LLC, priority 2014, dated 2017)
Where two headings read alike, the source gives them in different places. Ends that are not written are not given here.

Tests used:
[1] = system: Normal Human Epidermal Keratinocytes (NHEK); experiment: Comet assay of DNA fragmentation in NHEK exposed to UVB (Test Example 1); format: cell-based; conditions: FIG. 1
Method: This study used control samples and three types of test samples. Control samples were neither treated with the peptide, nor exposed to UVB radiation. Type 1 samples were treated with the peptide, as described below, but not exposed to UVB radiation. Type 2 samples were not treated with the peptide, but were exposed to UVB radiation. Type 3 samples were treated with the peptide, as described below, and exposed to UVB radiation. SIRT6 activating peptide (SEQ ID No. 1) in powdered form was prepared in solution at 50 ppm.
For all test samples, Normal Human Epidermal Keratinocytes (NHEK) were seeded on Trevigen Flare™ slides at 8,000 cells/spot for DNA fragmentation analysis. Cells were incubated at 37° C., 95% humidity and 5% CO2 in cell culture media for 24 hours. Type 1 and type 3 samples were treated with the 50 ppm powdered peptide solution at 3% of the cell culture media (equivalent to 0.00015% of peptide in solution), and all samples were incubated for 48 hours. Thereafter, the cell culture media was removed from all samples and replaced with 100 μl of Dulbecco's Phosphate Buffered Saline. […]
Following the six hour incubation, the sample cells were washed with phosphate buffered saline. […] The tail moments were analyzed with the Comet Score software from TriTek, Corp (Sumerduck, Va.). […]

sirtuin 6 = conditions: cited from earlier work; for sirtuin 6 expression: short-term cultures
SIRT6 = conditions: Normal Human Epidermal Keratinocytes (NHEK); cited from earlier work

Gly-Ala-Gly-Val-Ser-Ala-Glu-NH2 (GAGVSAE-NH2) [SEQ ID No. 1]
DNA fragmentation (comet tail moment) ([1]; type 1 samples: NHEK treated with peptide (0.00015% in solution), not irradiated): comparable to the control samples
DNA fragmentation (comet tail moment) ([1]; type 3 samples: NHEK pre-treated with peptide 48 h (0.00015%), 20 mJ/cm^2 UVB, post-treated 6 h): comparable to the control samples
sirtuin 6 expression stimulation effect, long term (sirtuin 6; long term cultures): maintained for the long term
sirtuin 6 expression (sirtuin 6; normal human fibroblasts): increase sirtuin 6 expression very significantly
sirtuin 6 expression (sirtuin 6; normal human keratinocytes): increase sirtuin 6 expression very significantly
SIRT6 expression (SIRT6): dose dependent increase in SIRT6 expression
